Experimental data: patent US7067665B2, “Oxybenzamide derivatives useful for inhibiting factor Xa or Vlla” (Sanofi-Aventis Deutschland GmbH, priority 2000, dated 2006)
pKi: −log10 of the molar value.

Biological target: T1, human factor Xa (Homo sapiens, UniProt P00742)
T1 construct: 25 μl human factor Xa (Enzyme Research Laboratories, Inc; South Bend, Ind.); purchased Enzyme Research Laboratories, Inc; South Bend, Ind
Experiment: Factor Xa chromogenic assay (substrate S-2765);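 further: purified enzyme, compound preincubated with the enzyme for 10 min before substrate addition starts the reaction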
Format: biochemical
Details: read-out: Ki(FXa)

T1 sequence (P00742 235-488 limits assumed): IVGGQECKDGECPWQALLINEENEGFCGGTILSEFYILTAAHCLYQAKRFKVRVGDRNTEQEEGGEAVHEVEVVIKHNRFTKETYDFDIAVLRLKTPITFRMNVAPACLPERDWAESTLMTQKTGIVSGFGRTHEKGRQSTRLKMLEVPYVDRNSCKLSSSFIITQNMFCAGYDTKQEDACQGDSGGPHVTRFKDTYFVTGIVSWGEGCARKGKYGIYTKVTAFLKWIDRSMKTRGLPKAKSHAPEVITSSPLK
T1 sequence (P00742 41-179 partner limits assumed): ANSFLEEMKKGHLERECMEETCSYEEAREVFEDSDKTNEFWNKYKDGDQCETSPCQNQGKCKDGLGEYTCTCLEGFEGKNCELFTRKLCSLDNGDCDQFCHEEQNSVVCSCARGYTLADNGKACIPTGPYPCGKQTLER

SMILES	pKi
COc1cc(C(=O)NCC2CCN(c3ccncc3)CC2)cc(OCCc2ccc(Cl)cc2)c1Br [Example 224, 4-Bromo-3-[2-(4-chloro-phenyl)-ethoxy]-5-methoxy-N-(3,4,5,6-tetrahydro-2H-[1,4′]bipyridinyl-4-ylmethyl)-benzamide]	7.70
O=C(NCC1CCN(c2ccncc2)CC1)c1cc(OCCc2ccc(Cl)cc2Cl)cc(C(=O)NCC2CCN(c3ccncc3)CC2)c1 [Example 227, 5-[2-(2,4-Dichloro-phenyl)-ethoxy]-N,N′-bis-(3,4,5,6-tetrahydro-2H-[1,4′]bipyridinyl-4-ylmethyl)-isophthalamide]	7.24
O=C(NCC1CCN(c2cc[n+](O)cc2)CC1)c1ccc(Cl)c(OCCc2ccc(Cl)cc2Cl)c1 [Example 230, 4-Chloro-3-[2-(2,4-dichloro-phenyl)-ethoxy]-N-(1′-oxy-3,4,5,6-tetrahydro-2H-[1,4′]bipyridinyl-4-ylmethyl)-benzamide]	6.19
O=C(NCC1CCN(c2cc[n+](O)cc2)CC1)c1ccc(Cl)c(OCCc2ccc(Cl)cc2)c1 [Example 231, 4-Chloro-3-[2-(4-chloro-phenyl)-ethoxy]-N-(1′-oxy-3,4,5,6-tetrahydro-2H-[1,4′]bipyridinyl-4-ylmethyl)-benzamide]	6.64
CCN(CC)C(=O)c1cc(OCCc2ccc(Cl)cc2Cl)cc(C(=O)NCC2CCN(c3ccncc3)CC2)c1 [Example 232, 5-[2-(2,4-Dichloro-phenyl)-ethoxy]-N,N-diethyl-N′-(3,4,5,6-tetrahydro-2H-[1,4′]bipyridinyl-4-ylmethyl)-isophthalamide]	6.72
O=C(NCC1CCN(c2ccncc2)CC1)c1cccc(CNCc2ccc(Cl)cc2Cl)c1 [Example 233, 3-[(2,4-Dichloro-benzylamino)-methyl]-N-(3,4,5,6-tetrahydro-2H-[1,4′]bipyridinyl-4-ylmethyl)-benzamide]	6.56
Cc1ccc(C(=O)NCC2CCN(c3ccncc3)CC2)cc1OCc1ccc(OC(F)(F)F)cc1 [Example 242]	5.53

The next lines start with the values.

pKi	SMILES
7.19	COc1cc(C(=O)NCC2CCN(c3ccnc(C)c3)CC2)cc(OCCc2ccc(Cl)cc2)c1Br [Example 225, 4-Bromo-3-[2-(4-chloro-phenyl)-ethoxy]-5-methoxy-N-(2′-methyl-3,4,5,6-tetrahydro-2H-[1,4′]bipyridinyl-4-ylmethyl)-benzamide]
7.09	O=C(O)c1cc(OCCc2ccc(Cl)cc2Cl)cc(C(=O)NCC2CCN(c3ccncc3)CC2)c1 [Example 226, 5-[2-(2,4-Dichlorophenyl)-ethoxy]-N-(3,4,5,6-tetrahydro-2H-[1,4′]bipyridinyl-4-ylmethyl)-isophthalamic acid]
6.66	COc1cc(C(=O)NCC2CCN(c3cc[n+](O)cc3)CC2)cc(OCCc2ccc(Cl)cc2Cl)c1Cl [Example 228, 4-Chloro-3-[2-(2,4-dichloro-phenyl)-ethoxy]-5-methoxy-N-(1′-oxy-3,4,5,6-tetrahydro-2H-[1,4′]bipyridinyl-4-ylmethyl)-benzamide]
5.42	Cc1ccc(C(=O)NCC2CCN(c3ccncc3)CC2)cc1OCc1ccc(Cl)cc1 [Example 239]
5.87	COc1ccc(COc2cc(C(=O)NCC3CCN(c4ccncc4)CC3)ccc2C)cc1 [Example 240]
5.66	COc1cccc(COc2cc(C(=O)NCC3CCN(c4ccncc4)CC3)ccc2C)c1 [Example 241]
